Nine molecules from PubChem BioAssay (NCI) can be followed below.

Several values for one entry are separate records, joined by “and”; a condition that tells them apart may be missing. Equal values may be shown once.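 Tested at 5 concentrations; 48 h exposure; 96-well plates; endpoints linearly interpolated, else capped at highest concentration. Abbreviation: GI50, concentration required for 50% inhibition of growth. The concentration for full growth arrest is given as TGI.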 Where only a bound is given, the exact number is not on record here.

Common to all, as to test: inhibition of tumour cell growth, NCI panel, 48 h
The subject of assay [1] is 786-0 renal.
The subject of assay [2] is ACHN renal.
The test system of assay [3] is HCT-116 colon.
Assay [4] relates to CCRF-CEM leukemia.
The test system of assay [5] is A549 NSCLC.
Assay [6] concerns SK-OV-3 ovarian.
The subject of assay [7] is SN12C renal.
Assay [8] concerns TK-10 renal.
Assay [9] relates to SW-620 colon.
In assay [10] the test system is PC-3 prostate.

`COc1cc(C2c3cc4c(cc3[C@@H](Nc3cccc(O)c3)C3COC(=O)[C@H]23)OCO4)cc(OC)c1O` (stereo partly drawn): the GI50 in [1] was 0.98 µM; in assay [2] it was 0.356 µM; in [3], 0.804 µM; in assay [4], 0.237 µM; in [5], 0.579 µM; in [7], 0.688 µM. The GI50 in assay [9] is 0.77 µM. Moreover, the TGI was 5.36 µM in assay [1]; 3.56 µM in [2]; 23.3 µM in assay [3]; 0.973 µM and 7.66 µM in assay [4]; 7.03 µM in assay [5]; 18 µM in [6]. The TGI is 6.82 µM in [7], 10.7 µM in [8], 41 µM in [9] and 15.4 µM in assay [10].
For the molecule `Cc1nc(C(N)=S)sc1C(=O)CC(=O)C(=O)Nc1cccc(Cl)c1C`, the TGI in assay [1], in assay [2], in [3], in [4], in assay [5] and in assay [6] was greater than 100 µM each time. Moreover, the TGI in assay [7], in assay [8], in assay [9] and in assay [10] was greater than 100 µM each time.
Turning to `CC(=O)N[C@@H]1CCC[C@H](C(=O)Nc2cc(-c3cnn4c3CC(C)(C)C4)c(Cl)cn2)C1`, the GI50 in assay [1] was less than 0.01 µM; in assay [2] it was less than 0.015 µM; in assay [3], less than 0.01 µM; in assay [4] it was less than 0.01 µM; in [5] it was less than 0.0108 µM; in assay [6], 0.0633 µM. For the same molecule, the GI50 was 0.0103 µM in assay [7], less than 0.01 µM in assay [8], less than 0.01 µM in assay [9] and less than 0.01 µM in assay [10]. Further, the TGI was 29.6 µM in assay [1]; greater than 100 µM in assay [2]; greater than 100 µM in assay [3]; 0.315 µM in [4]; greater than 100 µM in [5]; greater than 100 µM in assay [6]. Also, the TGI in assay [7], in assay [8], in assay [9] and in assay [10] was greater than 100 µM in each case.
With `COc1ccc(N=C2NN=C(c3c[nH]c4ccccc34)CS2)cc1OC`, the GI50 in assay [1] was 12 µM; in assay [2] it was 17.3 µM; in [3], 8.25 µM; in [4], 3.7 µM; in assay [5], 9.92 µM; in assay [6], 14.2 µM. The GI50 was 18.4 µM in [7], 38 µM in assay [8] and 5.68 µM in assay [9]. Further, the TGI in assay [1] was greater than 91.5 µM; in assay [2], greater than 100 µM; in assay [3], greater than 100 µM; in assay [4], greater than 100 µM; in [5], greater than 53.1 µM; in [6] it was greater than 100 µM. Moreover, the TGI in assay [7] was greater than 100 µM; in [8], greater than 100 µM; in assay [9] it was greater than 60.4 µM; in [10], greater than 45.8 µM.
As for `CN(C)c1ccc(Sc2ccc3nc(N)nc(N)c3c2)cc1`, the GI50 in assay [1] was 0.495 µM; in [2], 0.52 µM; in assay [3], 0.305 µM; in [4], 0.906 µM; in assay [5], 0.139 µM; in assay [6], 2.71 µM. The GI50 in assay [7] is 0.761 µM; in [8], 4.11 µM; in assay [9] it was 0.318 µM; in [10] it was 0.63 µM. The TGI in [1] was found to be 2.5 µM; in [2] it was 7.39 µM; in assay [3], 1.64 µM; in assay [4] it was 30.1 µM; in [5], 12 µM; in [6], 16.8 µM. In addition, the TGI was 14.2 µM in [7], 15.5 µM in assay [8], 2.1 µM in assay [9] and 15.6 µM in [10].
Turning to `O=[N+]([O-])O.[NH-]C1CCCCC1[NH-].[NH-]C1CCCCC1[NH-].[NH-]C1CCCCC1[NH-].[OH-].[OH-].[OH-].[Pt+4].[Pt+4].[Pt+4]` (stereo not drawn), the GI50 in assay [1] was 0.0408 µM; in [2], 0.164 µM; in [3], 0.0709 µM; in [4], 0.193 µM; in assay [5] it was 0.319 µM; in assay [6], 19.6 µM. In addition, the GI50 in [7] was 0.126 µM; in [8], 2.2 µM; in assay [10] it was 0.756 µM. Moreover, the TGI in [1] is 3.19 µM; in assay [4], 19.2 µM; in assay [5], 31.3 µM; in assay [6], greater than 100 µM; in assay [7], 26.7 µM; in assay [8], 28.9 µM. The TGI was greater than 100 µM in [9] and 40.9 µM in assay [10].
Take `CC(C)(C)NCCC(O)c1cc(C(F)(F)F)nc2c(C(F)(F)F)cccc12` (stereo not drawn): the TGI in [1] came out at 19.6 µM; in assay [2], 21.1 µM; in [3], 17.1 µM; in assay [4] it was 30.5 µM; in assay [5], 13.5 µM; in [6] it was 30.3 µM. Further, the TGI in assay [7] was 15.5 µM; in assay [8], 24.8 µM; in [9], greater than 52.6 µM; in [10] it was 20.6 µM.
On to `N#CC1(C#N)C2C=CC(C3CCC=C32)C1(C#N)C#N` (stereo not drawn), for which the TGI in assay [1] is greater than 9.04 µM; in [2] it was greater than 10 µM; in [3] it was greater than 10 µM; in assay [4], greater than 7.86 µM; in [5] it was greater than 10 µM; in [6] it was greater than 10 µM. The TGI in [7] was greater than 10 µM; in [8], greater than 9.01 µM; in assay [9] it was 3.32 µM; in [10] it was greater than 10 µM.
`COC(=O)Nc1nc2ccc(Sc3ccc(NC(=O)Nc4cc(C(F)(F)F)ccc4F)cc3)cc2[nH]1`: the GI50 was 5.64 µM in assay [1]; 3.58 µM in assay [2]; 1.37 µM in [3]; 3.3 µM in assay [4]; 3.01 µM in assay [5]; 5.1 µM in [6]. Moreover, the GI50 in assay [7] is 3.82 µM; in [8], 5.11 µM; in assay [9], 1.43 µM; in assay [10], 3.38 µM. The TGI was 13.8 µM in [1]; 10.2 µM in assay [2]; 4.67 µM in [3]; 12.5 µM in assay [4]; 7.06 µM in assay [5]; 14.3 µM in [6]. Moreover, the TGI in [7] is 11 µM; in assay [8], 11.3 µM; in assay [9] it was 5.52 µM; in assay [10] it was 11.1 µM.
